The test system of one series is TNFα. Put plainly: In vitro cytokine release from human PBMCs: TNFα. The series is classed as cell-based. The following applies: PBMC, lipopolysaccharide 50 pg/mL, 24 hours, read-out: inhibited the release of TNFα. As for the experimental part: (§1) 3-methanesulfonylpropionitrile (MSPN, prepared according to Example 1 was tested for its effects on in vitro cytokine release from human peripheral blood mononuclear cells (PBMCs). Secretion of cytokines by PBMCs plays a significant role in the inflammatory response.
(§2) MSPN was added to cultures of fresh human PBMCs at 162 μM (22 μg/mL) in duplicate. One hour later, PBMCs were stimulated to secrete cytokines using the mitogens lipopolysaccharide and concanavalin A (ConA). Lipopolysaccharide at 50 pg/mL was used to stimulate the release of interleukin IL-1β, IL-6 and tumor necrosis factor TNFα. ConA at 20 μg/mL was used to stimulate the release of IL-4 and ConA at 5 μg/mL was used to stimulate interferon IFNγ. The corticosteroid dexamethasone (100 nM) was used as a positive control. After 24 hours of incubation, the supernatants were assayed for the cytokines using the Luminex Bead kit. MSPN at 22 μg/mL inhibited the release of IL-1β, IL-6, TNFα, IL-4 and IFNγ by 95%, 98%, 98%, 7% and 21%, respectively. Dexamethasone inhibited the release of IL-1β, IL-6, TNFα, IL-4 and IFNγ by 24%, 60%, 42%, 93% and 87%, respectively.

The next series has as its system IFNγ. Briefly: In vitro cytokine release from human PBMCs: IFNγ. Format: cell-based. The following applies: PBMC, ConA 5 μg/mL, 24 hours, read-out: inhibited the release of IFNγ. As for the experimental part:
as §1, §2

The next series deals with IL-6. Put plainly: In vitro cytokine release from human PBMCs: IL-6. The series is classed as cell-based. The settings on record: PBMC, lipopolysaccharide 50 pg/mL, 24 hours, read-out: inhibited the release of IL-6. The procedure:
as §1, §2

For the next series, the system named is IL-1β. Put plainly: In vitro cytokine release from human PBMCs: IL-1β. The series is classed as cell-based. The settings on record: PBMC, lipopolysaccharide 50 pg/mL, 24 hours, read-out: inhibited the release of IL-1β. As for the experimental part:
as §1, §2

A further series concerns IL-4. Put plainly: In vitro cytokine release from human PBMCs: IL-4. Format: cell-based. The following applies: PBMC, ConA 20 μg/mL, 24 hours, read-out: inhibited the release of IL-4. The procedure:
as §1, §2

Series [1] can be described thus: Oral systemic toxicity administration in rats. The series is classed as in vivo.
Series [2] is described as follows: Storage stability of the isolated product at room temperature. The series is classed as physicochemical. The settings on record: oil or solid form, enclosed vessel, room temperature (22-28° C.). The source says:
In a preferred embodiment, the water-immiscible organic solvent is ethyl acetate. After the aqueous phase is removed, the ethyl acetate solvent is removed from the product by any means known to a person skilled in the art. For example, the ethyl acetate solvent can be removed by evaporation such as rotary evaporation or drying under nitrogen gas. After the ethyl acetate solvent is removed, the product 3-methanesulfonylpropionitrile is obtained in an oil form or in a solid form, which is stored in an enclosed vessel (such as a capped vial or bottle) and is stable for at least 1-3 months at room temperature (22-28° C.).

A short description of series [3]: Systemic (plasma) exposure of MSPN after oral and subcutaneous administration to rats. The settings on record: after both the oral and subcutaneous routes. The series is classed as in vivo. The procedure:
This study was done to determine the systemic (plasma) exposure of MSPN after administration by the oral and subcutaneous routes to rats.
MSPN substance was prepared in water for oral administration and in saline for subcutaneous administration. Rats weighed 282 to 295 g were used in the study. Male rats (n=2) were given a single dose at 50, 160 or 500 mg/kg by both oral and subcutaneous routes. Female rats (n=2) were dosed only at 500 mg/kg by both oral and subcutaneous routes. The blood was drawn from each rat at 0.25, 1, 2, 3, 4, 6, 12, 24, and 48 hours and measured for MSPN concentration by LC/MS/MS.

The subject of series [4] is arachidonic acid induced ear swelling. Briefly: Topical arachidonic acid induced ear swelling model in mice. Format: in vivo. The settings on record: 30 min before and 15 min after challenge, at 90 minutes. The procedure: Purified 3-methanesulfonylpropionitrile (MSPN, prepared according to Example 2) was dissolved in vehicle (ethanol/acetone 1:1) to 5% (w/v). The active compound, indomethacin (positive control in vehicle), and vehicle were evaluated for anti-inflammatory activity in the topical arachidonic acid induced ear swelling model in mice.
Male ICR derived mice weighing 22±2 g were used in this experiment. 5 mice were used for each group (active compound, positive control, and vehicle). All animals were maintained in a controlled temperature (22-24° C.) and humidity (60%-70%) environment with 12-hour light/dark cycles for at least one week prior to use.
Arachidonic acid (2 mg in 20 μL acetone) was applied topically onto the anterior and posterior surfaces of the right ear of test animals to induce inflammation. MSPN in vehicle (20 μL), indomethacin (0.3 mg) in vehicle, and vehicle (20 μL) was each applied 30 minutes before and 15 minutes after arachidonic acid challenge. At 90 minutes after arachidonic acid induction of ear edema, the thickness of the right ear and the left ear was measured and the difference calculated as an indication of the inflammation in the right ear. Significant activity is defined as a reduction (inhibition) in arachidonic acid induced ear swelling by ≥30% relative to the vehicle-treated group.

A short description of series [5]: Oral systemic toxicity administration in dogs. The series is classed as in vivo.

For the compound `C[C@@H]1C[C@H]2[C@@H]3CCC4=CC(=O)C=C[C@]4(C)[C@@]3(F)[C@@H](O)C[C@]2(C)[C@@]1(O)C(=O)CO` [Dexamethasone, dexamethasone, reference compound], the inhibition at 0.1 µM in the series on TNFα (dexamethasone 100 nM) came out at 42%; with IFNγ (dexamethasone 100 nM), 87%; with IL-6 (dexamethasone 100 nM), 60%; with IL-1β (dexamethasone 100 nM), 24%; in the series on IL-4 (dexamethasone 100 nM), 93%.

Consider `CS(=O)(=O)CCC#N` [MSPN, 3-methanesulfonylpropionitrile], for which the “effects seen after oral, systemic toxicity administration” value in series [1] (rat, in vivo, po) is “mild physiological effects including decreased body temperature, decreased respiratory rate, increased blood pressure and increased heart rate”; in series [5] (dog, in vivo, po), “mild physiological effects including decreased body temperature, decreased respiratory rate, increased blood pressure and increased heart rate”. The “doses at which effects were seen, above expected human therapeutic doses” value in series [1] (rats, oral) was “over 2000 fold”; in series [5] (dogs, oral), “over 2000 fold”. The stable on storage in [2] is listed as 1-3 months. The inhibition at 162 µM with TNFα (MSPN at 22 μg/mL (162 μM)) turned out to be 98%; in the series with IFNγ (MSPN at 22 μg/mL (162 μM)), 21%; with IL-6 (MSPN at 22 μg/mL (162 μM)), 98%; in the series on IL-1β (MSPN at 22 μg/mL (162 μM)), 95%; in the series on IL-4 (MSPN at 22 μg/mL (162 μM)) it was 7%. In addition, the bioavailability result in [3] is on record as “significant bioavailability”. The “decrease in the ear swelling induced by arachidonic acid relative to vehicle-treated group” value in series [4] (5% (w/v) in ethanol/acetone 1:1, 20 μL topical) is given as 31%.

`COc1ccc2c(c1)c(CC(=O)O)c(C)n2C(=O)c1ccc(Cl)cc1` [indomethacin, reference compound]: the “decrease in the ear swelling induced by arachidonic acid relative to vehicle-treated group” value in series [4] (0.3 mg in vehicle topical) is reported as 60%.

Source of the values: US11229620B2, “3-methanesulfonylpropionitrile for treating inflammation and/or pain” (OLATEC THERAPEUTICS LLC, priority 2010, dated 2022).
